Experimental data from ChEMBL document CHEMBL1201862, “PubChem BioAssay data set” (2004).
Activity calls are given as the source filed them.

Tests used:
[1] = cells; format: functional, cell-based
[2] = target: T1, Nuclear receptor subfamily 0 group B member 1 (Homo sapiens, UniProt P51843); format: functional, cell-based;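 note: HEK293T cells transfected with SF-1 and DAX-1 plus StAR promoter luciferase reporter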
T1 sequence (P51843 whole entry): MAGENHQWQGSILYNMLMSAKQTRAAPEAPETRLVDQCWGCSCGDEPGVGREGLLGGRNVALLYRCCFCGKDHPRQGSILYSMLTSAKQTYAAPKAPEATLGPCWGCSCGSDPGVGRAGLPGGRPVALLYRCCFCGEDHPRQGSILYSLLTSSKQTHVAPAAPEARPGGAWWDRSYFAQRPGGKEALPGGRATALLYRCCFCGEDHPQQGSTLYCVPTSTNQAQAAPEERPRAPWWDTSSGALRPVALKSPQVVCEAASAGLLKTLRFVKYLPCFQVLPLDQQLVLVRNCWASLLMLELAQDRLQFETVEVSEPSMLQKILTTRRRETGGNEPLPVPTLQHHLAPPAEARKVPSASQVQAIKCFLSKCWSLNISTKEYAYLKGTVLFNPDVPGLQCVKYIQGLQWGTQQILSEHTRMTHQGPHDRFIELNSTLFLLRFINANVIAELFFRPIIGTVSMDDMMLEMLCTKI

[3] = test system: HEK293; experiment: EBV LMP1 TES2 canonical NF-kB signalling blockers – cell-based, HEK293, luciferase, cherry-pick, dose response (AID 588343); format: functional; conditions: Homo sapiens
[4] = target: T2, Corticotropin-releasing factor receptor 2/Corticotropin-releasing factor-binding protein (Homo sapiens, UniProt P24387+Q13324); experiment: activators of CRF receptor 2 with binding protein – uHTS hits, confirmation (AID 602473); format: functional; conditions: read-out: EC50_Mean
T2 sequence (Q13324 whole entry): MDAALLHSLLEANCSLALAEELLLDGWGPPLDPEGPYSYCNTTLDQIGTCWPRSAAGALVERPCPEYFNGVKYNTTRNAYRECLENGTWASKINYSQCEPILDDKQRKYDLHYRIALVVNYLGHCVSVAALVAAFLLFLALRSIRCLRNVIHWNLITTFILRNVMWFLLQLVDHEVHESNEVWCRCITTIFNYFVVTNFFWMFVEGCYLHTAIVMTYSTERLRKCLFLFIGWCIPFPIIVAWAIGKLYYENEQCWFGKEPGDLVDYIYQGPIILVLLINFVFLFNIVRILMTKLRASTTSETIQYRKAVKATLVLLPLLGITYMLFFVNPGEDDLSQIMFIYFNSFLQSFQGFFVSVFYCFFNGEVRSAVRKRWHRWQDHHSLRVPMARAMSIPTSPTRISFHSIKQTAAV
T2 sequence (P24387 whole entry): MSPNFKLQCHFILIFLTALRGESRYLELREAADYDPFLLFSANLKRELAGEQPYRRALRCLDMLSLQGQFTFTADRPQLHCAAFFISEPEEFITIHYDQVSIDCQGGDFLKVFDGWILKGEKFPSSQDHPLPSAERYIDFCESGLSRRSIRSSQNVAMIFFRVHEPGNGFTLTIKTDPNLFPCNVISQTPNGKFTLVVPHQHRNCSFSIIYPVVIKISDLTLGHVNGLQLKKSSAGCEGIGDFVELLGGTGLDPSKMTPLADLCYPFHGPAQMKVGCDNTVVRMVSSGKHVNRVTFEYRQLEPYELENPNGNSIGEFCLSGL

[5] = target: Genome polyprotein (dengue virus type 2, UniProt P29990); experiment: flavivirus cap methylation enzyme inhibition – biochemical, confirmation dose response, primary screen (AID 588689); format: functional
Sequence of Genome polyprotein (P29990 2492-3391 limits assumed): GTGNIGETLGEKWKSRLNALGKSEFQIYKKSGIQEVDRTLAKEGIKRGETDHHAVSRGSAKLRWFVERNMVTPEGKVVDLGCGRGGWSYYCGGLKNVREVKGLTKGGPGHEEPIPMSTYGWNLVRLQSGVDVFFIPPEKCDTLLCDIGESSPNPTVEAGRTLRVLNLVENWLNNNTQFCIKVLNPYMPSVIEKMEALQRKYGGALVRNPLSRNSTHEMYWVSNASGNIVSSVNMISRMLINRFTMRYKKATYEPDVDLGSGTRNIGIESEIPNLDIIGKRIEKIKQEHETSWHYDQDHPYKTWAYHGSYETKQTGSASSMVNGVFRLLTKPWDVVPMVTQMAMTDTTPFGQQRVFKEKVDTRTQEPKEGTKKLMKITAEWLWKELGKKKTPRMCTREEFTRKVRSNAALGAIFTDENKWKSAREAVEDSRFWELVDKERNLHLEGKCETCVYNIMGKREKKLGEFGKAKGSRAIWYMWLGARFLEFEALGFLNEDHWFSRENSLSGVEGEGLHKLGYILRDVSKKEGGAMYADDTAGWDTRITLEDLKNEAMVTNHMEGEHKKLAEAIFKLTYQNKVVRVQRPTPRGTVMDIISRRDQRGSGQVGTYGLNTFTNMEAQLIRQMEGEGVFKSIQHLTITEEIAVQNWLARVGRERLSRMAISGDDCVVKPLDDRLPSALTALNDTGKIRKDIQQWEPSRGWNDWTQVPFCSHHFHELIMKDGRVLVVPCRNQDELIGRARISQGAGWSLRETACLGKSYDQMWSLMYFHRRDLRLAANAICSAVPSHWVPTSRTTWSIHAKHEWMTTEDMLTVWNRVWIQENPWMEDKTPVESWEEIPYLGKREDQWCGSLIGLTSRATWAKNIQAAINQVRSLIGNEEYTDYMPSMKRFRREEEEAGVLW

[6] = target: T2, Corticotropin-releasing factor receptor 2/Corticotropin-releasing factor-binding protein; experiment: Dose Response confirmation of uHTS hits for small molecule antagonists of the CRF-binding protein and CRF-R2 receptor complex.; format: functional; conditions: read-out: IC50_Mean
[7] = blockers of CRF-binding protein–CRF-R2 complex – cell-based, uHTS hits, 384-well, dose response (AID 651639); format: functional, Homo sapiens; conditions: read-out: IC50_Mean
[8] = target: T3, Long-chain-fatty-acid--AMP ligase FadD28 (Mycobacterium tuberculosis, UniProt P9WQ59); experiment: Fluorescence polarization aasay to screen for inhibitors that compete for the binding of FadD28 to a bisubstrate Measured in Biochemical System Using Plate Reader - 2147-01_Inhibitor_Dose_CherryPick_Activity.; format: functional, Mycobacterium tuberculosis H37Rv
T3 sequence (P9WQ59 whole entry): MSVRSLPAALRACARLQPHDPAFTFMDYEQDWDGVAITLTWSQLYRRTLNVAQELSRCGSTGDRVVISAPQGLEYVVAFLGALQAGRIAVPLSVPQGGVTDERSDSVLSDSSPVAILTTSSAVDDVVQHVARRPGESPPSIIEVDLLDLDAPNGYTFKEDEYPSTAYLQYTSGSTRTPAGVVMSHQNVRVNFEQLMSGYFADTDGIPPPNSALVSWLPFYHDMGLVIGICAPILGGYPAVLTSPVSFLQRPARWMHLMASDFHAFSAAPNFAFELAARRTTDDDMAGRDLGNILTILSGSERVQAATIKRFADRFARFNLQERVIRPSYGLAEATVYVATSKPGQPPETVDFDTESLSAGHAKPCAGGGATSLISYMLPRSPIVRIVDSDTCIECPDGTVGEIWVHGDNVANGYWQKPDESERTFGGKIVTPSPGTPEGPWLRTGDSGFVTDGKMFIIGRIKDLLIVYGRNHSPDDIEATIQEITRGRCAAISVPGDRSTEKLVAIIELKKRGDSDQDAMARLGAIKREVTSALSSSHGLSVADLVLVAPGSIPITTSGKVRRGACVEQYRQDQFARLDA

[9] = activation of miR-122 Renilla sensor silencing – cell-based, Huh7 psiCHECK-miR122, Renilla luciferase, cherry-picked, dose response (AID 651956); format: functional;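 note: huh7 hepatoma cells stably carrying a psiCHECK-2 miR-122 sensor plasmid; renilla luciferase signal reporting endogenous miR-122 activity after 48 h compound exposure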
[10] = target: T4, Sentrin-specific protease 1 (Homo sapiens, UniProt Q9P0U3); experiment: Dose response confirmation of small molecule inhibitors of the catalytic domain of the SUMO protease, SENP1 in a FRET assay.; format: functional; conditions: read-out: IC50_Mean
T4 sequence (Q9P0U3 whole entry): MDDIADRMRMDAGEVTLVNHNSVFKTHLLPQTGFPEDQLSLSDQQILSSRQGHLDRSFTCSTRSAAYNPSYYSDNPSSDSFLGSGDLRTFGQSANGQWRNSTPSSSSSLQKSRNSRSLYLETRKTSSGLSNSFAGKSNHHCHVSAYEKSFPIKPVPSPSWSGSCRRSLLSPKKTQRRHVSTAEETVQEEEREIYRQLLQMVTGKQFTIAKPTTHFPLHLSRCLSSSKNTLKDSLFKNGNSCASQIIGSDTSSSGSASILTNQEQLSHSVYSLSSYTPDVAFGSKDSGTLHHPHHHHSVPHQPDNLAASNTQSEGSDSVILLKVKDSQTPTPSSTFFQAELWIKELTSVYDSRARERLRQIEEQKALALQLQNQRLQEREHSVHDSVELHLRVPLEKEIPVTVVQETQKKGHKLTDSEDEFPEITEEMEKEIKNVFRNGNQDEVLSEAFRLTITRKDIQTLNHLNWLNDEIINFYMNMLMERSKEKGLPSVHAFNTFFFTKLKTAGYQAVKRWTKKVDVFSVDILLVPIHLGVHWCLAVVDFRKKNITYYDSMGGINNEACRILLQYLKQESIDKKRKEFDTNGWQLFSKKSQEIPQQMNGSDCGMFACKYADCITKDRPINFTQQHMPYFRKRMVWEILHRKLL

[11] = target: T4, Sentrin-specific protease 1; experiment: SENP1 catalytic domain blockers, concentration series – biochemical, kinetic FRET, dose response (AID 651697); format: functional; conditions: read-out: IC50_Mean
[12] = viability loss in CEM21 cells – cell-based, CellTiter-Glo luminescence, cherry-picked, cytotoxicity control for viral fusion inhibitor project, dose response (AID 652042); format: functional;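 note: potency for signal decrease meaning cytotoxicity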
[13] = blockers of HIV-1 envelope-mediated cell-cell fusion – cherry-pick, dose response (AID 652057); format: functional, cell-based
[14] = off-target signal loss in HeLa-CEM21 co-culture – HeLa F-luc CTL cells, cherry-picked, counter-screen for HIV-1 Env fusion inhibitor project, dose response (AID 652040); format: functional, cell-based;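 note: potency for signal decrease marking cytotoxic or nonspecific inhibition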
[15] = HIV-1 AD8 envelope cell-cell fusion blockers – cherry-pick, dose response (AID 652062); format: functional, cell-based;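 note: luciferase signal from cell-cell fusion driven by HIV-1 clade B AD8 Env; potency is for inhibitors of fusion seen as a drop in luminescence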
[16] = blockers of HIV-1 ZM109 envelope-driven cell-cell fusion – HeLa effector, CEM target cells, luciferase, cherry-pick, dose response (AID 652058); format: functional, cell-based;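 note: luciferase signal from HIV-1 Env mediated cell-cell fusion of effector and target cells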

## Cc1ccc(NC(=O)C(=O)Nc2ccccn2)cc1
[1]
  IC50: > 67.6 µM (inactive)
[2]
  IC50: > 67.6 µM (inactive)
[3]
  AC50: 2.59 µM (active)

## C=CCOc1ccc(/C=C2\SC(=S)N(NS(=O)(=O)c3ccccc3)C2=O)cc1
[4]
  EC50: > 53 µM (inactive)
[5]
  IC50: 30.4 µM (active)
[6]
  IC50: 3.68 µM (active)
[7]
  IC50: 6.69 µM (active)
[8]
  AC50: > 100 µM (inactive)

## CCCCN(CCCC)C(=O)CN(C)S(=O)(=O)c1ccc2c(c1)n(C)c(=O)c(=O)n2C
[9]
  AC50: 1.4 µM (active)

## COc1ccccc1NC(=O)CONC(=N)CC(=O)NC1CCCCC1
[10]
  IC50: 12.5 µM (active)
[11]
  IC50: 14.1 µM (active)

## OCC1OC(n2ccc3c(NO)ncnc32)C(O)C1O (stereo unspecified)
[12]
  AC50: 0.641 µM (active)
[13]
  AC50: 2.35 µM (active)
[14]
  AC50: 2.65 µM (active)
[15]
  AC50: 4.53 µM (active)
[16]
  AC50: 2.44 µM (active)
